{"source": "paper PMC6479099", "about": "“Aminoguanidines: New leads for treatment of Giardia duodenalis infection” (International Journal for Parasitology: Drugs and Drug …, 2019)", "key": {"[1]": {"tested_on": "Giardia duodenalis BAH2c2 strain, assemblage A", "experiment": "Resazurin reduction assay, assemblage A isolate", "format": "cell-based", "details": "for MLC (minimum lethal concentration), Assemblage A: concentration at which no metabolism of resazurin was observed; for IC50: Giardia duodenalis, 24 h, read-out: IC50, Assemblage A", "description": "(§1) G. duodenalis (BAH2c2 and BAH12 strain) was cultivated according to the method of Clark and Diamond in Keister's modified TYI-S-33 medium, supplemented with heat inactivated foetal bovine serum (Hyclone™, Thermo Fisher Scientific, Scoresby, Victoria, Australia) at 37 °C in plastic 9 mL screw-capped test tubes (nunc, Thermo Fisher Scientific, Scoresby, Victoria, Australia). Subcultures were performed once a confluent monolayer was observed, approximately 2–3 times per week ([Clark and Diamond, 2002]).\n(§2) The in-vitro compound efficacy was determined using a resazurin reduction assay as previously described ([Benere et al., 2007]). The media of confluent cultures was replaced with fresh media and the cultures were placed on ice for 40 min to detach trophozoites. Trophozoites were enumerated using a haemocytometer and 50 000 trophozoites were added to each test well of a 96 well plate. Doubling or tripling dilutions of the test compounds were added to wells beginning at 25 or 50 μM compound concentration (previously prepared in DMSO). Metronidazole and DMSO (vehicle only) were used as controls. Plates were incubated under anaerobic conditions, using anaerobic gas generating sachets, (AnaeroGen, Thermo Fisher Scientific, Scoresby, Victoria, Australia) for 24 h at 37 °C. After incubation the media was removed and replaced with an equal volume of warm PBS. Resazurin (Alamarblue, Thermo Fisher Scientific, Scoresby, Victoria, Australia) was then added at 10% of the total volume of the wells. Plates were further incubated (1.5 h) for colour development and absorbance read at 570 nm and 630 nm. The percentage resazurin reduction was then calculated using the following formula:((εoxi630 x A570) – (εoxi570 x A630))/((εred570 x C630)-([…])) x 100Where: εoxi630 = 34798, εoxi570 = 80586, A570 = absorbance at 570 nm, A630 = absorbance at 630 nm, εred570 = 155677, εred630 = 5494, C630 = absorbance of negative control well at 630 nm and C570 = absorbance of negative control well at 570 nm.\n(§3) For the resazurin reduction assay the mean and standard error of the mean were determined with each assay completed in triplicate. The IC50 was calculated using the log (inhibitor) vs. normalised response – variable slope function in Graphpad Prism. For the adherence assay mean and standard error of the mean were calculated and data analysed using an unpaired t-test, relative to untreated control.\n(§4) The IC50 of each compound was determined using a resazurin reduction assay, which measures the metabolic activity of cells, using the log (inhibitor) vs. normalised response – variable slope function in Graphpad Prism. The compounds were tested against an assemblage A (BAH2c2, 24 h) and an assemblage B (BAH12, 24 h) isolate (Table 1). […] The effect of the compounds on the proliferation of Giardia trophozoites (BAH2c2) was also determined.\nAbsorbance was measured (630 and 570 nm), percent reduction of resazurin calculated and data presented as a percentage of the growth control. Treatment groups are: square - metronidazole; triangle –NCL 099; diamond - robenidine; and circle - NCL 062. Error ± SEM, n = 3. Data represents a typical experiment. Note the break in the x-axis indicates a change in the scale of drug concentration."}, "[2]": {"tested_on": "Giardia trophozoites (BAH2c2)", "experiment": "Proliferation of Giardia trophozoites (resazurin, 96 h)", "format": "cell-based, Giardia duodenalis", "details": "read-out: IC50prol, Assemblage A (50% inhibition in the proliferation assay)", "description": "The effect of the compounds on the proliferation of Giardia trophozoites was determined following the protocol outlined above, with the following modifications. The number of trophozoites was decreased to 1000 per well and the cells were incubated in the presence of each compound for 96 h at 37 °C.\nas §4"}, "giardiasis": {"tested_on": "giardiasis", "parameters": "method as in Wright et al., 2003", "details": "ref Wright et al., 2003; cited from earlier work"}, "AT region of DNA": {"tested_on": "AT region of DNA", "parameters": "method as in Nguyen et al., 2002", "details": "ref Nguyen et al., 2002; cited from earlier work"}, "[3]": {"tested_on": "Giardia duodenalis BAH2c2 strain, assemblage A", "experiment": "Resazurin reduction assay, assemblage A isolate", "format": "cell-based"}, "[4]": {"tested_on": "G. duodenalis trophozoites", "experiment": "Giardia recovery assay", "format": "cell-based, Giardia duodenalis", "details": "5 h at 5x the IC50, counts at 24 and 48 h post exposure", "description": "G. duodenalis trophozoites were harvested on ice as outlined above and 5 × 10^5 cells/mL were added to 1.5 mL centrifuge tubes. […] After exposure cells were collected by placing tubes on ice for 40 min followed by centrifugation at 900×g for 5 min. The supernatant was removed and cells were resuspended in 8 mL of fresh media (in a 9 mL culture tube). The number of trophozoites was counted using a haemocytometer and cells were incubated for 48 h with cell numbers being determined at 24 and 48 h.\nFig. 7 Recovery assay of Giardia duodenalis exposed to robenidine and metronidazole. Giardia trophozoites were exposed to robenidine or metronidazole for 5 h at 5x the IC50. Key: closed circle – growth control, triangle – metronidazole, square – robenidine, open circle – NCL 062, diamond – NCL 099. Cell numbers were determined at 24 and 48 h post exposure. Error ± SD."}, "[5]": {"tested_on": "Giardia duodenalis BAH12, assemblage B", "experiment": "Resazurin reduction assay, assemblage B isolate", "format": "cell-based", "details": "BAH12, 24 h; for IC50: Giardia duodenalis, resazurin metabolic assay", "description": "as §1, §2, §3, §4"}, "[6]": {"tested_on": "Giardia duodenalis trophozoites", "experiment": "Modified adherence assay", "format": "cell-based", "details": "4 μM, 5 h exposure", "description": "(§5) A second screening method, based on counting adherent trophozoites, was developed and used to validate the primary screen method, modified from earlier adherence assay protocols ([Crouch et al., 1986]). The assay was prepared in 24 well plates with plastic coverslips placed in the bottom. Trophozoites were prepared as above by placing on ice and ∼5 × 10^5 cells/mL were added to each well. Drugs prepared in DMSO were added at the required concentration, with the DMSO concentration never exceeding 1%. Assay plates were incubated for 5 h at 37 °C under anaerobic conditions, the media removed and cells adhering to the coverslips were fixed with glutaraldehyde or methanol. Once the coverslips were dry, cells were stained with a Romanowsky stain variant (Rapid stain), fixed to a glass slide and imaged at 10x or 100x magnification. Images (10x magnification) were processed with DotCount v1.2 software (http://reuter.mit.edu/, 2008–2012 ^© Martin Reuter) to count the number of cells present and data analysed using GraphPad Prism version 6.00 for Windows, GraphPad Software, La Jolla California USA, www.graphpad.com. Images (100x magnification) were assessed for obvious morphological changes.\nThe results for the in vitro drug efficacy studies were analysed using GraphPad Prism version 6.00 for Windows, GraphPad Software, La Jolla California USA, www.graphpad.com. For the resazurin reduction assay the mean and standard error of the mean were determined with each assay completed in triplicate. The IC50 was calculated using the log (inhibitor) vs. normalised response – variable slope function in Graphpad Prism. For the adherence assay mean and standard error of the mean were calculated and data analysed using an unpaired t-test, relative to untreated control.\nFig. 3 Inhibition of adherence of Giardia duodenalis by metronidazole (Mz), robenidine, NCL 062 and NCL 099. Cells were exposed to the compounds for 5 h before staining. Stained cells were imaged at 10x magnification and counted using DotCount™ software. Each assay was completed in triplicate and 5 images taken per sample. Top. Number of adherent trophozoites after exposure to 4 μM of each compound for 5 h; Bottom. An example of the Dotcount software identifying trophozoites at higher magnification. Left: stained trophozoites, Right: highlighted trophozoites identified by the Dotcount software. Each highlighted cell is counted individually. Error ± SEM. * p-value <0.05, ** p-value <0.0001."}, "[7]": {"experiment": "In vitro cytotoxicity, murine macrophage cells", "details": "mouse, RAW 264.7 murine macrophage cells"}, "Giardia trophozoites": {"tested_on": "Giardia trophozoites", "experiment": "Morphology of stained trophozoites at 100x magnification", "format": "cell-based, Giardia duodenalis", "description": "as §5\nFig. 4 Morphological effect of Robenidine and NCL 099 on Giardia trophozoites. Giardia trophozoites were exposed to each compound for 24 h before fixation with glutaraldehyde and staining following the Diff quik protocol. A-control cells, B – cells treated with metronidazole (IC50, 2 μM), C- robendine treated cells (IC50, 2 μM), D – NCL 099 treated cells (IC50, 3 μM), E − NCL 099 treated cells (2 x IC50)."}, "[8]": {"details": "BAH2c2, 24 h, resazurin metabolic assay"}, "[9]": {"details": "BAH2c2, 1000 trophozoites per well"}}, "note": "Like-named read-outs stand apart in the source and are kept apart here.", "data": [{"smiles": "CCCSc1ccc2nc(NC(=O)OC)[nH]c2c1", "note": "[Albendazole]", "values": [{"measurement": "MLC (minimum lethal concentration), Assemblage A", "setting": "[1]; BAH2c2, 24 h", "result": "0.02 to 0.07", "unit": "µM"}, {"measurement": "IC50", "setting": "[1]", "result": "< 0.02", "unit": "µM"}, {"measurement": "IC50", "setting": "[2]", "result": "0.8 ± 0.7", "unit": "µM"}, {"measurement": "Reported efficacy", "setting": "giardiasis", "result": "62–95%"}]}, {"smiles": "Cl.Cl.Cl.N=C(N)c1cccc(/C=N/N=C(\\N)N/N=C/c2cccc(C(=N)N)c2)c1", "note": "[CGP 40215A]", "values": [{"measurement": "Binding to the AT region of DNA", "setting": "AT region of DNA", "result": "strong bond"}]}, {"smiles": "Cc1ncc([N+](=O)[O-])n1CCO", "note": "[Metronidazole]", "values": [{"measurement": "MLC (minimum lethal concentration), Assemblage A", "setting": "[1]; BAH2c2, 24 h", "result": 2.8, "unit": "µM"}, {"measurement": "IC50", "setting": "[1]; [8]", "result": "2 ± 1", "unit": "µM"}, {"measurement": "Time required to exhibit inhibitory activity", "setting": "[3]", "result": 24, "unit": "h"}, {"measurement": "Recovery of trophozoites after short-term exposure", "setting": "[4]", "result": "did not have any permanent effects"}, {"measurement": "IC50", "setting": "[2]; [9]", "result": "1.7 ± 2", "unit": "µM"}, {"measurement": "Treatment success rate", "setting": "giardiasis", "result": "80–90%"}, {"measurement": "MLC, Assemblage B", "setting": "[5]", "result": 16.6, "unit": "µM"}, {"measurement": "IC50", "setting": "[5]", "result": "3.8 ± 0.5", "unit": "µM"}, {"measurement": "Effect on adherence of trophozoites", "setting": "[6]", "result": "no significant effect on cell adherence"}]}, {"smiles": "C/C(=N\\NC(=N)N/N=C(\\C)c1ccc(Cl)cc1)c1ccc(Cl)cc1.Cl", "note": "[NCL 062, (E)-N'-((E)-1-(4-chlorophenyl)ethylidene)-2-(1-(4-chlorophenyl)ethylidene)hydrazine-1-carboximidhydrazide hydrochloride]", "values": [{"measurement": "MLC (minimum lethal concentration), Assemblage A", "setting": "[1]; BAH2c2, 24 h", "result": 0.9, "unit": "µM"}, {"measurement": "IC50", "setting": "[1]; [8]", "result": "0.8 ± 0.6", "unit": "µM"}, {"measurement": "GI50", "setting": "[7]", "result": 4, "unit": "µM"}, {"measurement": "Recovery of trophozoites after short-term exposure", "setting": "[4]", "result": "unable to recover"}, {"measurement": "IC50", "setting": "[2]; [9]", "result": "2 ± 1.3", "unit": "µM"}, {"measurement": "MLC, Assemblage B", "setting": "[5]", "result": 3.1, "unit": "µM"}, {"measurement": "IC50", "setting": "[5]", "result": "1.8 ± 0.0008", "unit": "µM"}, {"measurement": "Effect on adherence of trophozoites", "setting": "[6]", "result": "complete inhibition of adherence"}]}, {"smiles": "CC(C)(C)c1ccc(/C=N/NC(=N)N/N=C/c2ccc(C(C)(C)C)cc2)cc1.Cl", "note": "[NCL 099, N′,2-bis((E)-4-(tert-butyl)benzylidene)hydrazine-1-carboximidhydrazide hydrochloride]", "values": [{"measurement": "MLC (minimum lethal concentration), Assemblage A", "setting": "[1]; BAH2c2, 24 h", "result": 8.3, "unit": "µM"}, {"measurement": "IC50", "setting": "[1]; [8]", "result": "3 ± 0.3", "unit": "µM"}, {"measurement": "GI50", "setting": "[7]", "result": 7.3, "unit": "µM"}, {"measurement": "Morphological effect on stained trophozoites at 2 x the IC50", "setting": "Giardia trophozoites; 2 x IC50, 100 x magnification", "result": "disintegration of the cell membrane"}, {"measurement": "Morphological effect on stained trophozoites at the IC50", "setting": "Giardia trophozoites; at IC50, 100 x magnification", "result": "decrease in the membrane stain intensity"}, {"measurement": "Recovery of trophozoites after short-term exposure", "setting": "[4]", "result": "able to recover after short-term exposure but growth was slower"}, {"measurement": "IC50", "setting": "[2]; [9]", "result": "11.1 ± 0.8", "unit": "µM"}, {"measurement": "MLC, Assemblage B", "setting": "[5]", "result": 5.5, "unit": "µM"}, {"measurement": "IC50", "setting": "[5]", "result": "3.3 ± 0.2", "unit": "µM"}, {"measurement": "Effect on adherence of trophozoites", "setting": "[6]", "result": "significantly affected adherence of trophozoites at 4 μM, but did not completely inhibit adherence"}]}, {"smiles": "CCS(=O)(=O)CCn1c([N+](=O)[O-])cnc1C", "note": "[tinidazole]", "values": [{"measurement": "Treatment success rate", "setting": "giardiasis", "result": "80–90%"}]}]}
